From PubChem BioAssay AID248 (DTP/NCI, 2004)
Toxic doses and inconclusive results are not listed. No stated cut-off is given here; in the data, active means T/C of 150% or more; inactive means T/C below 125%.

System: L1210 leukemia ip in BDF1 mice, survival T/C
Assay: NCI In Vivo Anticancer Drug Screen. Data for tumor model L1210 Leukemia (intraperitoneal) in B6D2F1 (BDF1) mice
Settings: endpoint: mean survival time, higher = longer survival
How it was run: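 Transplantable tumor model; survival measured in treated vs vehicle control mice. Value = treated/control.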

[1] = dose: 100.0 mg/kg/injection, schedule: Q01DX001 (ip), vehicle: carboxymethylcellulose (CMC)
[2] = dose: 200.0 mg/kg/injection, schedule: Q01DX001 (ip), vehicle: carboxymethylcellulose (CMC)
[3] = dose: 400.0 mg/kg/injection, schedule: Q01DX001 (ip), vehicle: carboxymethylcellulose (CMC)
[4] = dose: 100.0 mg/kg/injection, schedule: Q04DX002 (ip), vehicle: Klucel (hydroxypropylcellulose) (HPC)
[5] = dose: 200.0 mg/kg/injection, schedule: Q04DX002 (ip), vehicle: Klucel (hydroxypropylcellulose) (HPC)
[6] = dose: 100.0 mg/kg/injection, schedule: Q04DX003 (ip), vehicle: Klucel (hydroxypropylcellulose) (HPC)
[7] = dose: 100.0 mg/kg/injection, schedule: Q01DX009 (ip), vehicle: Klucel (hydroxypropylcellulose) (HPC)
[8] = dose: 200.0 mg/kg/injection, schedule: Q01DX009 (ip), vehicle: Klucel (hydroxypropylcellulose) (HPC)
[9] = dose: 400.0 mg/kg/injection, schedule: Q01DX009 (ip), vehicle: Klucel (hydroxypropylcellulose) (HPC)
[10] = dose: 100.0 mg/kg/injection, schedule: Q01DX001 (ip), vehicle: saline with Tween-80
[11] = dose: 200.0 mg/kg/injection, schedule: Q01DX001 (ip), vehicle: saline with Tween-80

Measured: T/C

COc1ccc(CNS(=O)(=O)c2ccc(C)cc2)cc1OC
inactive: [1] 96 % of control | [2] 110 % of control | [3] 116 % of control

CCc1nc(N[N+](=O)[O-])nc(CC)c1-c1ccc([N+](=O)[O-])cc1O
inactive: dose: 100.0 mg/kg/injection, schedule: Q04DX002 (ip), vehicle: saline with Tween-80 97 % of control | dose: 200.0 mg/kg/injection, schedule: Q04DX002 (ip), vehicle: saline with Tween-80 87 % of control | dose: 400.0 mg/kg/injection, schedule: Q04DX002 (ip), vehicle: saline with Tween-80 95 % of control

N#Cc1[nH]cnc1[N+]#N
inactive: dose: 3.0 mg/kg/injection, schedule: Q01DX009 (ip), vehicle: saline with Tween-80 103 % of control | dose: 3.0 mg/kg/injection, schedule: Q04DX003 (ip), vehicle: other 108 % of control | dose: 6.0 mg/kg/injection, schedule: Q01DX009 (ip), vehicle: saline with Tween-80 105 % of control | dose: 6.0 mg/kg/injection, schedule: Q04DX003 (ip), vehicle: other 103 % of control | dose: 12.0 mg/kg/injection, schedule: Q01DX009 (ip), vehicle: saline with Tween-80 91 % of control | dose: 12.0 mg/kg/injection, schedule: Q04DX003 (ip), vehicle: other 108 % of control | dose: 12.5 mg/kg/injection, schedule: Q01DX001 (ip), vehicle: other 94 % of control

CCC(CO)NCc1cc(=O)[nH]c(=O)[nH]1 (centres undefined)
inactive: dose: 100.0 mg/kg/injection, schedule: Q04DX003 (ip), vehicle: saline 96 % of control | dose: 200.0 mg/kg/injection, schedule: Q04DX003 (ip), vehicle: saline 96 % of control | dose: 400.0 mg/kg/injection, schedule: Q04DX003 (ip), vehicle: saline 102 % of control

COC1OC2COC(C2OS(=O)(=O)c2ccc(C)cc2)C1OS(=O)(=O)c1ccc(C)cc1 (centres undefined)
inactive: dose: 50.0 mg/kg/injection, schedule: Q04DX002 (ip), vehicle: Klucel (hydroxypropylcellulose) (HPC) 94 % of control | [4] 94 % of control | [5] 98 % of control

OCn1nc(Cl)c2cc(Cl)ccc21
inactive: [1] 103 % of control | [2] 98 % of control | [3] 100 % of control

Cc1ccc(C[As](C)(=O)O)cc1
inactive: dose: 25.0 mg/kg/injection, schedule: Q04DX003 (ip), vehicle: Klucel (hydroxypropylcellulose) (HPC) 100 % of control | dose: 50.0 mg/kg/injection, schedule: Q04DX003 (ip), vehicle: Klucel (hydroxypropylcellulose) (HPC) 98 % of control | [6] 97 % of control

CCN(CC)Cc1ccc(N)cc1
inactive: dose: 12.5 mg/kg/injection, schedule: Q01DX009 (ip), vehicle: saline 100 % of control | dose: 25.0 mg/kg/injection, schedule: Q01DX009 (ip), vehicle: saline 110 % of control

N#CC(N)c1ccccc1 (centres undefined)
inactive: dose: 75.0 mg/kg/injection, schedule: Q01DX001 (ip), vehicle: saline 103 % of control

Nc1cnccc1Nc1ccncc1
inactive: dose: 100.0 mg/kg/injection, schedule: Q04DX003 (ip), vehicle: saline with Tween-80 96 % of control | dose: 200.0 mg/kg/injection, schedule: Q04DX003 (ip), vehicle: saline with Tween-80 96 % of control

O=C(CSCCCCl)OCCSCCCCl
inactive: dose: 17.5 mg/kg/injection, schedule: Q01DX Z (ip), vehicle: saline 93 % of control | dose: 70.0 mg/kg/injection, schedule: Q01DX Z (ip), vehicle: saline 104 % of control

Nc1c(Br)cc2c(c1Br)Cc1cc(Br)ccc1-2
inactive: dose: 200.0 mg/kg/injection, schedule: Q01DX Z (ip), vehicle: saline 109 % of control | dose: 400.0 mg/kg/injection, schedule: Q01DX Z (ip), vehicle: saline 107 % of control | dose: 800.0 mg/kg/injection, schedule: Q01DX Z (ip), vehicle: saline 112 % of control | dose: 1600.0 mg/kg/injection, schedule: Q01DX Z (ip), vehicle: saline 112 % of control

CCCCC(=O)c1ccc(OC)cc1
inactive: [7] 100 % of control | [6] 96 % of control | [8] 105 % of control | dose: 200.0 mg/kg/injection, schedule: Q04DX003 (ip), vehicle: Klucel (hydroxypropylcellulose) (HPC) 102 % of control | [9] 102 % of control | dose: 400.0 mg/kg/injection, schedule: Q04DX003 (ip), vehicle: Klucel (hydroxypropylcellulose) (HPC) 93 % of control

COC(=O)Nc1nc2cc(Cl)c(Cl)cc2[nH]1
inactive: [1] 94 % of control | [2] 100 % of control | [3] 100 % of control

CCCCCC/C=C/[N+]([O-])=NC(COC)C(C)O (centres undefined)
inactive: dose: 5.3 mg/kg/injection, schedule: Q01DX Z (ip), vehicle: carboxymethylcellulose (CMC) 103 % of control | dose: 8.0 mg/kg/injection, schedule: Q01DX Z (ip), vehicle: carboxymethylcellulose (CMC) 106 % of control | dose: 12.0 mg/kg/injection, schedule: Q01DX Z (ip), vehicle: carboxymethylcellulose (CMC) 101 % of control | dose: 18.0 mg/kg/injection, schedule: Q01DX Z (ip), vehicle: carboxymethylcellulose (CMC) 95 % of control

O=C(O)CCCCCCCCCCN1C(=O)CCC1=O
inactive: dose: 100.0 mg/kg/injection, schedule: Q04DX003 (ip), vehicle: carboxymethylcellulose (CMC) 98 % of control | dose: 200.0 mg/kg/injection, schedule: Q04DX003 (ip), vehicle: carboxymethylcellulose (CMC) 92 % of control | dose: 400.0 mg/kg/injection, schedule: Q04DX003 (ip), vehicle: carboxymethylcellulose (CMC) 104 % of control

Cc1nc(N)nc(C)c1N=Nc1ccc(Br)cc1
inactive: dose: 100.0 mg/kg/injection, schedule: Q04DX003 (ip), vehicle: other 90 % of control | dose: 200.0 mg/kg/injection, schedule: Q04DX003 (ip), vehicle: other 102 % of control | dose: 400.0 mg/kg/injection, schedule: Q04DX003 (ip), vehicle: other 100 % of control

CC(=O)c1c2ccccc2cc2ccccc12
inactive: dose: 100.0 mg/kg/injection, schedule: Q01DX001 (ip), vehicle: saline 106 % of control | dose: 200.0 mg/kg/injection, schedule: Q01DX001 (ip), vehicle: saline 106 % of control | dose: 400.0 mg/kg/injection, schedule: Q01DX001 (ip), vehicle: saline 101 % of control

CC(C)(C)C(=O)CC(=O)C(C)(C)C.CC(C)(C)C(=O)CC(=O)C(C)(C)C.CC(C)(C)C(=O)CC(=O)C(C)(C)C.[Yb]
inactive: dose: 100.0 mg/kg/injection, schedule: Q01DX005 (ip), vehicle: Klucel (hydroxypropylcellulose) (HPC) 97 % of control | [7] 97 % of control | [4] 96 % of control | dose: 200.0 mg/kg/injection, schedule: Q01DX005 (ip), vehicle: Klucel (hydroxypropylcellulose) (HPC) 105 % of control | [8] 97 % of control | [5] 107 % of control | dose: 400.0 mg/kg/injection, schedule: Q01DX005 (ip), vehicle: Klucel (hydroxypropylcellulose) (HPC) 101 % of control | [9] 97 % of control | dose: 400.0 mg/kg/injection, schedule: Q04DX002 (ip), vehicle: Klucel (hydroxypropylcellulose) (HPC) 96 % of control

O=C1OC(=O)c2c(O)cccc21
inactive: dose: 12.5 mg/kg/injection, schedule: Q01DX001 (ip), vehicle: saline 101 % of control | dose: 25.0 mg/kg/injection, schedule: Q01DX001 (ip), vehicle: saline 105 % of control | dose: 25.0 mg/kg/injection, schedule: Q01DX009 (ip), vehicle: saline with Tween-80 98 % of control | dose: 50.0 mg/kg/injection, schedule: Q01DX001 (ip), vehicle: saline 103 % of control | dose: 50.0 mg/kg/injection, schedule: Q01DX009 (ip), vehicle: saline with Tween-80 104 % of control | dose: 100.0 mg/kg/injection, schedule: Q01DX009 (ip), vehicle: saline with Tween-80 98 % of control | dose: 150.0 mg/kg/injection, schedule: Q01DX009 (ip), vehicle: saline with Tween-80 118 % of control

CC(=O)Nc1ccc(C(=O)O)c(OC(C)=O)c1
inactive: [10] 92 % of control | [11] 96 % of control | dose: 400.0 mg/kg/injection, schedule: Q01DX001 (ip), vehicle: saline with Tween-80 97 % of control

CCOC1(OCC)CS(=O)(=O)C1Cl (centres undefined)
inactive: dose: 50.0 mg/kg/injection, schedule: Q01DX001 (ip), vehicle: saline with Tween-80 107 % of control | [10] 98 % of control | [11] 98 % of control

COC(=O)C/C(=N\NC(=O)c1ccccc1)C(=O)OC
inactive: dose: 50.0 mg/kg/injection, schedule: Q01DX009 (ip), vehicle: Klucel (hydroxypropylcellulose) (HPC) 98 % of control | [7] 93 % of control | [8] 98 % of control | [9] 93 % of control
